Experimental data from patent US12338256B2, “Aza-tetracyclic oxazepine compounds and uses thereof” (Genentech, Inc., priority 2022, dated 2025).
Like-named read-outs stand apart in the source and are kept apart here.

Columns and labels:
Assay type in all cases: cell-based
[1] = tested on: H1975 (KRAS wild type human lung adenocarcinoma cell line); assay: KRAS 3D-Cell Proliferation Assay, H1975 (Example 503); settings: H1975 3D culture, 7 days, CellTiter-Glo 3D, read-out: Prolif H1975 3D ATP IC50
Summary of the method: (§1)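 3D culture, ultra-low attachment wells; RPMI-1640/10% FBS/2 mM L-glutamine. Overnight settle, then compound series, 0.3% DMSO final, 7 d, 37° C, 5% CO2. Readout: CellTiter-Glo 3D luminescence. % inhibition vs DMSO (0%) and 1 μM staurosporine (100%); IC50 via 4-parameter Hill.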

[2] = tested on: AsPC-1 (homozygous mutant KRAS G12D human pancreatic cell line); assay: KRAS 3D-Cell Proliferation Assay, AsPC-1 (Example 503); settings: AsPC-1 3D culture, 7 days, CellTiter-Glo 3D, read-out: Prolif AsPC-1 3D ATP IC50
Experimental: Example 503: KRAS 3D-Cell Proliferation Assays. Cellular potencies of compounds are assessed by evaluating inhibition of proliferation in 3D cultures of homozygous mutant KRAS G12D human pancreatic cell lines (AsPC-1 and HPAC) as compared to a KRAS wild type human lung adenocarcinoma cell line (PC-9 and/or H1975). Cells are seeded into 384-well black round-bottom, ultra-low attachment assay plates in 50 uL cell growth medium (RPMI-1640 with 10% fetal bovine serum and 2 mM L-glutamine). After overnight incubation at 37° C. and 5% CO2, compounds solubilized in DMSO are added as dilution series to the wells in a total volume of 150 nL (0.3% DMSO final). The cells are incubated for 7 days at 37° C. and 5% CO2. Cell proliferation is quantitated by addition of 40 uL/well of CellTiter-GloÒ 3D (Promega), and the well contents are mixed 20× at high speed using liquid handling automation workstation (Bravo with 384-well head) and centrifuged at 1500 rpm for 2 minutes to eliminate bubbles. This reagent in combination with mechanical disruption releases the cellular ATP to promote activity in a luciferase-based enzyme/substrate chemiluminescent detection system. After a 30-minute incubation under ambient conditions with shaking and an additional 10 minutes without shaking, the luminescence is read on a plate reader (e.g., EnVision [PerkinElmer]). The results are normalized to percent inhibition based on the following control samples: DMSO (0% inhibition) and 1 μM staurosporine (100% inhibition). The normalized luminescence results are plotted against compound concentration, and the data are fit to a 4-parameter Hill equation to determine the IC50 values.

[3] = tested on: HPAC (homozygous mutant KRAS G12D human pancreatic cell line); assay: KRAS 3D-Cell Proliferation Assay, HPAC (Example 503); settings: HPAC 3D culture, 7 days, CellTiter-Glo 3D, read-out: Prolif HPAC 3D ATP IC50
Summary of the method: as §1

**Q.** Which IC50 ([1]; Homo sapiens, NCI-H1975, 168 h) does the source give for `Cc1c(F)c(N)cc(-c2nc3c4c(nc(OC[C@H]5[C@@H](O)CCN5C)nc4c2F)N2C[C@H]4CC[C@H](N4)[C@H]2[C@H](C)O3)c1C(F)(F)F` [Compound 162, (2S,3S)-2-((((5S,5aS,6S,9R)-2-(5-Amino-4-fluoro-3-methyl-2-(trifluoromethyl)phenyl)-1-fluoro-5-methyl-5a,6,7,8,9,10-hexahydro-5H-4-oxa-3,10a,11,13,14-pentaaza-6,9-methanonaphtho[1,8-ab]heptalen-12-yl)oxy)methyl)-1-methylpyrrolidin-3-ol] here?
**A.** 9.45 µM

**Q.** And the IC50 ([2]; Homo sapiens, ASPC1, 168 h)?
**A.** 0.2 µM

**Q.** And the IC50 ([3]; Homo sapiens, HPAC, 168 h)?
**A.** 0.0487 µM

**Q.** With `Cc1c(F)c(N)cc(-c2nc3c4c(nc(OCC56CCN(C)C5COC6)nc4c2F)N2C[C@H]4CC[C@H](N4)[C@H]2[C@H](C)O3)c1C(F)(F)F` (single isomer, unassigned) [258 (isomer 1)] as the compound, how does the IC50 ([1]; Homo sapiens, NCI-H1975, 168 h) read?
**A.** 1.56 µM

**Q.** And the IC50 ([2]; Homo sapiens, ASPC1, 168 h)?
**A.** 0.0081 µM

**Q.** And the IC50 ([3]; Homo sapiens, HPAC, 168 h)?
**A.** 0.005 µM

**Q.** `C#Cc1cccc2cc(O)cc(-c3nc4c5c(nc(OC[C@@]67CCCN6C[C@H](F)C7)nc5c3F)N3C[C@H]5CC[C@H](N5)[C@H]3[C@H](C(F)(F)F)O4)c12` [Compound 251] was tested. Which IC50 ([1]; Homo sapiens, NCI-H1975, 168 h) did it give?
**A.** 0.234 µM

**Q.** What about the IC50 ([2]; Homo sapiens, ASPC1, 168 h) of the same compound?
**A.** 0.0019 µM

**Q.** And the IC50 ([3]; Homo sapiens, HPAC, 168 h)?
**A.** 0.0023 µM

**Q.** For `Cc1nc(N)cc(-c2nc3c4c(nc(OCC56CCN5CC(F)(F)C6)nc4c2F)N2C[C@H]4CC[C@H](N4)[C@H]2[C@H](C)O3)c1C(F)(F)F` (stereo partly drawn) [Compound 214, 4-((5S,5aS,6S,9R)-12-((3,3-Difluoro-1-azabicyclo[3.2.0]heptan-5-yl)methoxy)-1-fluoro-5-methyl-5°,6,7,8,9,10-hexahydro-5H-4-oxa-3,10°,11,13,14-pentaaza-6,9-methanonaphtho[1,8-ab]heptalen-2-yl)-6-methyl-5-(trifluoromethyl)pyridin-2-amine], which IC50 ([1]; Homo sapiens, NCI-H1975, 168 h) is on record?
**A.** 7.03 µM

**Q.** And the IC50 ([2]; Homo sapiens, ASPC1, 168 h)?
**A.** 0.0254 µM

**Q.** What about the IC50 ([3]; Homo sapiens, HPAC, 168 h) of the same compound?
**A.** 0.00804 µM

**Q.** `Cc1c(F)c(N)cc(-c2nc3c4c(nc(OCC5(CN6CCO[C@H](C)C6)CC5)nc4c2F)N2C[C@H]4CC[C@H](N4)[C@H]2[C@H](C)O3)c1C(F)(F)F` [Compound 168, 2-Fluoro-5-((5S,5aS,6S,9R)-1-fluoro-5-methyl-12-((1-(((R)-2-methylmorpholino)methyl)cyclopropyl)methoxy)-5a,6,7,8,9,10-hexahydro-5H-4-oxa-3,10a,11,13,14-pentaaza-6,9-methanonaphtho[1,8-ab]heptalen-2-yl)-3-methyl-4-(trifluoromethyl)aniline] was tested. Which IC50 ([1]; Homo sapiens, NCI-H1975, 168 h) did it give?
**A.** 0.656 µM

**Q.** What about the IC50 ([2]; Homo sapiens, ASPC1, 168 h) of the same compound?
**A.** 0.0007 µM

**Q.** What about the IC50 ([3]; Homo sapiens, HPAC, 168 h) of the same compound?
**A.** 0.000472 µM

**Q.** What does the source list for `Cc1nc(N)cc(-c2nc3c4c(nc(OCC5(CN6C7CCC6COC7)CC5)nc4c2F)N2C[C@H]4CC[C@H](N4)[C@H]2[C@H](C)O3)c1C(F)(F)F` [Compound 206, 4-((5S,5aS,6S,9R)-12-((1-((3-Oxa-8-azabicyclo[3.2.1]octan-8-yl)methyl)cyclopropyl)methoxy)-1-fluoro-5-methyl-5a,6,7,8,9,10-hexahydro-5H-4-oxa-3,10a,11,13,14-pentaaza-6,9-methanonaphtho[1,8-ab]heptalene-2-yl)-6-methyl-5-(trifluoromethyl)pyridin-2-amine]?
**A.** IC50 ([1]; Homo sapiens, NCI-H1975, 168 h): 2.84 µM; IC50 ([2]; Homo sapiens, ASPC1, 168 h): 0.0036 µM; IC50 ([3]; Homo sapiens, HPAC, 168 h): 0.00316 µM

**Q.** `C#Cc1c(F)ccc2cccc(-c3nc4c5c(nc(OCC67CCN6CC(F)(F)C7)nc5c3F)N3C[C@H]5CC[C@H](N5)[C@H]3[C@H](C)O4)c12` (stereo partly drawn) [Compound 22, (5S,5aS,6S,9R)-12-((3,3-difluoro-1-azabicyclo[3.2.0]heptan-5-yl)methoxy)-2-(8-ethynyl-7-fluoronaphthalen-1-yl)-1-fluoro-5-methyl-5a,6,7,8,9,10-hexahydro-5H-4-oxa-3,10a,11,13,14-pentaaza-6,9-methanonaphtho[1,8-ab]heptalene] was tested. Which IC50 ([1]; Homo sapiens, NCI-H1975, 168 h) did it give?
**A.** 20 µM

**Q.** What about the IC50 ([2]; Homo sapiens, ASPC1, 168 h) of the same compound?
**A.** 0.0603 µM

**Q.** And the IC50 ([3]; Homo sapiens, HPAC, 168 h)?
**A.** 0.139 µM

**Q.** How did the IC50 ([1]; Homo sapiens, NCI-H1975, 168 h) turn out when `Cc1c(F)c(N)cc(-c2nc3c4c(nc(OC[C@@]56CCCN5C[C@H](F)C6)nc4c2F)N2C[C@H]4CC[C@H](N4)[C@H]2CO3)c1C(F)(F)F` [Compound 61, 2-Fluoro-5-((5aS,6S,9R)-1-fluoro-12-(((2R,7aS)-2-fluorotetrahydro-1H-pyrrolizin-7a(5H)-yl)methoxy)-5a,6,7,8,9,10-hexahydro-5H-4-oxa-3,10a,11,13,14-pentaaza-6,9-methanonaphtho[1,8-ab]heptalen-2-yl)-3-methyl-4-(trifluoromethyl)aniline] was run?
**A.** 2.61 µM

**Q.** What about the IC50 ([2]; Homo sapiens, ASPC1, 168 h) of the same compound?
**A.** 0.0445 µM

**Q.** What about the IC50 ([3]; Homo sapiens, HPAC, 168 h) of the same compound?
**A.** 0.0213 µM

**Q.** How did the IC50 ([1]; Homo sapiens, NCI-H1975, 168 h) turn out when `C[C@@H]1Oc2nc(-c3cc(N)c(F)c(F)c3CC(F)(F)F)c(F)c3nc(OC[C@@]45CCCN4C[C@H](F)C5)nc(c23)N2C[C@H]3CC[C@H](N3)[C@@H]12` [Compound 183, 2,3-Difluoro-5-((5S,5aS,6S,9R)-1-fluoro-12-(((2R,7aS)-2-fluorotetrahydro-1H-pyrrolizin-7a(5H)-yl)methoxy)-5-methyl-5a,6,7,8,9,10-hexahydro-5H-4-oxa-3,10a,11,13,14-pentaaza-6,9-methanonaphtho[1,8-ab]heptalene-2-yl)-4-(2,2,2-trifluoroethyl)aniline] was run?
**A.** 0.852 µM

**Q.** And the IC50 ([2]; Homo sapiens, ASPC1, 168 h)?
**A.** 0.0042 µM

**Q.** And the IC50 ([3]; Homo sapiens, HPAC, 168 h)?
**A.** 0.00232 µM

**Q.** `Cc1cc(N)c(F)c(-c2nc3c4c(nc(OC[C@@H]5CC[C@H]6COCCN65)nc4c2F)N2C[C@H]4CC[C@H](N4)[C@H]2[C@H](C)O3)c1C(F)(F)F` [Compound 97, 2-Fluoro-3-((5S,5aS,6S,9R)-1-fluoro-12-(((6S,8aS)-hexahydro-1H-pyrrolo[2,1-c][1,4]oxazin-6-yl)methoxy)-5-methyl-5a,6,7,8,9,10-hexahydro-5H-4-oxa-3,10a,11,13,14-pentaaza-6,9-methanonaphtho[1,8-ab]heptalen-2-yl)-5-methyl-4-(trifluoromethyl)aniline] was tested. Which IC50 ([1]; Homo sapiens, NCI-H1975, 168 h) did it give?
**A.** 0.573 µM

**Q.** What about the IC50 ([2]; Homo sapiens, ASPC1, 168 h) of the same compound?
**A.** 0.0101 µM

**Q.** And the IC50 ([3]; Homo sapiens, HPAC, 168 h)?
**A.** 0.00321 µM

**Q.** What does the source list for `Cc1c(F)c(N)cc(-c2nc3c4c(nc(OC[C@@H]5[C@@H]6CCN5CCO6)nc4c2F)N2C[C@H]4CC[C@H](N4)[C@H]2[C@H](C)O3)c1C(F)(F)F` [Compound 136, 5-((5S,5aS,6S,9R)-12-(((5S,8R)-4-Oxa-1-azabicyclo[3.2.1]octan-8-yl)methoxy)-1-fluoro-5-methyl-5a,6,7,8,9,10-hexahydro-5H-4-oxa-3,10a,11,13,14-pentaaza-6,9-methanonaphtho[1,8-ab]heptalen-2-yl)-2-fluoro-3-methyl-4-(trifluoromethyl)aniline]?
**A.** IC50 ([1]; Homo sapiens, NCI-H1975, 168 h): 12.3 µM; IC50 ([2]; Homo sapiens, ASPC1, 168 h): 0.2 µM; IC50 ([3]; Homo sapiens, HPAC, 168 h): 0.0675 µM

**Q.** Which results are given for `Cc1c(F)c(N)cc(-c2nc3c4c(nc(OC[C@]5(CN6CC7(COC7)C6)CC5(F)F)nc4c2F)N2C[C@H]4CC[C@H](N4)[C@H]2[C@H](C)O3)c1C(F)(F)F` (mixture of isomers) [165 a]?
**A.** IC50 [1]: 0.374 µM; IC50 [2]: 0.0006 µM; IC50 [3]: 0.00063 µM

**Q.** Which results are given for `C[C@@H]1Oc2nc(-c3c(Cl)c(N)c(F)c(F)c3C(F)(F)F)c(F)c3nc(OC[C@@]45CCCN4C[C@H](F)C5)nc(c23)N2C[C@H]3CC[C@H](N3)[C@@H]12` (atropisomer, axis not shown; (aS)) [Compound 106, 2-Chloro-5,6-difluoro-3-((5S,5aS,6S,9R)-1-fluoro-12-(((2R,7aS)-2-fluorotetrahydro-1H-pyrrolizin-7a(5H)-yl)methoxy)-5-methyl-5a,6,7,8,9,10-hexahydro-5H-4-oxa-3,10a,11,13,14-pentaaza-6,9-methanonaphtho[1,8-ab]heptalen-2-yl)-4-(trifluoromethyl)aniline]?
**A.** IC50 ([1]; Homo sapiens, NCI-H1975, 168 h): 0.77 µM; IC50 ([2]; Homo sapiens, ASPC1, 168 h): 0.0054 µM
